Data taken from PubChem BioAssay AID2060332 (Molecular Pharmacology Branch, DTP, NCI, 2025).

System: LG0567-F671-PDC multi-cell spheroid viability
Experiment: Anticancer human tumor LG0567-F671-PDC patient-derived lung adenocarcinoma cell line growth inhibition [IpAb]
Settings: for viability, T/C: stronger effect = lower value
In short: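 Combinations with ipatasertib or abemaciclib were tested on tumour spheroids holding HUVEC (25%) and MSC (15%) alongside 60% malignant cells. Top concentration was at or near clinical Cmax (10 microM if undefined), descending in half-log steps.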

[1] = curve of first compound, second compound 0.1 µM
[2] = curve of first compound, second compound 0.316 µM
[3] = curve of first compound, second compound 1 µM
[4] = second compound 0.1 µM, first compound 0.000316 µM
[5] = second compound 0.1 µM, first compound 0.001 µM
[6] = second compound 0.1 µM, first compound 0.00316 µM
[7] = second compound 0.1 µM, first compound 0.01 µM
[8] = second compound 0.1 µM, first compound 0.0316 µM
[9] = second compound 0.1 µM, first compound 0.1 µM
[10] = second compound 0.316 µM, first compound 0.000316 µM
[11] = second compound 0.316 µM, first compound 0.001 µM
[12] = second compound 0.316 µM, first compound 0.00316 µM
[13] = second compound 0.316 µM, first compound 0.01 µM
[14] = second compound 0.316 µM, first compound 0.0316 µM
[15] = second compound 0.316 µM, first compound 0.1 µM
[16] = second compound 1 µM, first compound 0.000316 µM
[17] = second compound 1 µM, first compound 0.001 µM
[18] = second compound 1 µM, first compound 0.00316 µM
[19] = second compound 1 µM, first compound 0.01 µM
[20] = second compound 1 µM, first compound 0.0316 µM
[21] = second compound 1 µM, first compound 0.1 µM
[22] = curve of first compound, second compound 3.16 µM
[23] = curve of first compound, second compound 10 µM
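Also: viability read after 7 days of drug exposure.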
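For viability, T/C in this document: 100% = DMSO vehicle control luminescence.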

Compound CC(C)n1nc(-c2ccc3oc(N)nc3c2)c2c(N)ncnc21 + CCN1CCN(Cc2ccc(Nc3ncc(F)c(-c4cc(F)c5nc(C)n(C(C)C)c5c4)n3)nc2)CC1 has an IC50 (curve of first compound, second compound 0.01 µM) of 30.5 nM, an IC50 (curve of first compound, second compound 0.0316 µM) of 11.6 nM and an IC50 [1] of 13.5 nM. For the same compound, the IC50 [2] was 6.93 nM, the IC50 [3] was 6.59 nM and the viability, T/C (second compound 0.01 µM, first compound 0.000316 µM) was 111%. The viability, T/C (second compound 0.01 µM, first compound 0.001 µM) was 88.4%, the viability, T/C (second compound 0.01 µM, first compound 0.00316 µM) was 65.4% and the viability, T/C (second compound 0.01 µM, first compound 0.01 µM) was 70.2%. It also gave a viability, T/C (second compound 0.01 µM, first compound 0.0316 µM) of 50%, a viability, T/C (second compound 0.01 µM, first compound 0.1 µM) of 38.6% and a viability, T/C (second compound 0.0316 µM, first compound 0.000316 µM) of 86.8%. The viability, T/C (second compound 0.0316 µM, first compound 0.001 µM) was 80.8%, the viability, T/C (second compound 0.0316 µM, first compound 0.00316 µM) was 73.8% and the viability, T/C (second compound 0.0316 µM, first compound 0.01 µM) was 52.9%. For the same compound, the viability, T/C (second compound 0.0316 µM, first compound 0.0316 µM) was 34.9%, the viability, T/C (second compound 0.0316 µM, first compound 0.1 µM) was 35% and the viability, T/C [4] was 65.5%. The viability, T/C [5] was 70.2%, the viability, T/C [6] was 47.8% and the viability, T/C [7] was 55.6%. For the same compound, the viability, T/C [8] was 46.7%, the viability, T/C [9] was 29.1% and the viability, T/C [10] was 66.4%. It also gave a viability, T/C [11] of 53.2%, a viability, T/C [12] of 69.8% and a viability, T/C [13] of 38.5%. It also gave a viability, T/C [14] of 39.6%, a viability, T/C [15] of 36.8% and a viability, T/C [16] of 57.1%. The viability, T/C [17] was 61.7%, the viability, T/C [18] was 56.3% and the viability, T/C [19] was 40.9%. The viability, T/C [20] was 43.6% and the viability, T/C [21] was 27.9%.
With CC(=O)c1c(C)c2cnc(Nc3ccc(N4CCNCC4)cn3)nc2n(C2CCCC2)c1=O + CC(C)NCC(C(=O)N1CCN(c2ncnc3c2C(C)CC3O)CC1)c1ccc(Cl)cc1 the IC50 [1] was > 300 nM, the IC50 [2] was > 300 nM and the IC50 [3] was > 300 nM. The IC50 [22] was > 300 nM, the IC50 [23] was > 300 nM and the viability, T/C (second compound 0.1 µM, first compound 0.000949 µM) was 89.3%. For the same compound, the viability, T/C (second compound 0.1 µM, first compound 0.003 µM) was 84.7%, the viability, T/C (second compound 0.1 µM, first compound 0.00949 µM) was 68.9% and the viability, T/C (second compound 0.1 µM, first compound 0.03 µM) was 69.5%. It also gave a viability, T/C (second compound 0.1 µM, first compound 0.0949 µM) of 67.7%, a viability, T/C (second compound 0.1 µM, first compound 0.3 µM) of 75.6% and a viability, T/C (second compound 0.316 µM, first compound 0.000949 µM) of 66.5%. It also gave a viability, T/C (second compound 0.316 µM, first compound 0.003 µM) of 71.5%, a viability, T/C (second compound 0.316 µM, first compound 0.00949 µM) of 69.7% and a viability, T/C (second compound 0.316 µM, first compound 0.03 µM) of 61.3%. The viability, T/C (second compound 0.316 µM, first compound 0.0949 µM) was 58.1%, the viability, T/C (second compound 0.316 µM, first compound 0.3 µM) was 62.5% and the viability, T/C (second compound 1 µM, first compound 0.000949 µM) was 76.3%. It also gave a viability, T/C (second compound 1 µM, first compound 0.003 µM) of 73.6%, a viability, T/C (second compound 1 µM, first compound 0.00949 µM) of 78.9% and a viability, T/C (second compound 1 µM, first compound 0.03 µM) of 66%. For the same compound, the viability, T/C (second compound 1 µM, first compound 0.0949 µM) was 63.1%, the viability, T/C (second compound 1 µM, first compound 0.3 µM) was 75.2% and the viability, T/C (second compound 3.16 µM, first compound 0.000949 µM) was 61.2%. The viability, T/C (second compound 3.16 µM, first compound 0.003 µM) was 80.1%, the viability, T/C (second compound 3.16 µM, first compound 0.00949 µM) was 74.2% and the viability, T/C (second compound 3.16 µM, first compound 0.03 µM) was 69.1%. The viability, T/C (second compound 3.16 µM, first compound 0.0949 µM) was 68.4%, the viability, T/C (second compound 3.16 µM, first compound 0.3 µM) was 69.2% and the viability, T/C (second compound 10 µM, first compound 0.000949 µM) was 71.7%. It also gave a viability, T/C (second compound 10 µM, first compound 0.003 µM) of 84.8%, a viability, T/C (second compound 10 µM, first compound 0.00949 µM) of 79.3% and a viability, T/C (second compound 10 µM, first compound 0.03 µM) of 59.6%. The viability, T/C (second compound 10 µM, first compound 0.0949 µM) was 60.3% and the viability, T/C (second compound 10 µM, first compound 0.3 µM) was 58.4%.
Cn1ncnc1[C@H]1c2n[nH]c(=O)c3cc(F)cc(c23)N[C@@H]1c1ccc(F)cc1 + CC(C)NCC(C(=O)N1CCN(c2ncnc3c2C(C)CC3O)CC1)c1ccc(Cl)cc1 showed an IC50 [1] of 21.9 nM, an IC50 [2] of 9.77 nM and an IC50 [3] of 18.1 nM. The IC50 [22] was 38.1 nM, the IC50 [23] was 20.5 nM and the viability, T/C [4] was 104%. For the same compound, the viability, T/C [5] was 97.9%, the viability, T/C [6] was 68.9% and the viability, T/C [7] was 64.9%. It also gave a viability, T/C [8] of 42%, a viability, T/C [9] of 41.1% and a viability, T/C [10] of 69.1%. It also gave a viability, T/C [11] of 70.5%, a viability, T/C [12] of 64.1% and a viability, T/C [13] of 44.9%. The viability, T/C [14] was 56.4%, the viability, T/C [15] was 47.8% and the viability, T/C [16] was 73.6%. The viability, T/C [17] was 74.5%, the viability, T/C [18] was 75% and the viability, T/C [19] was 68.5%. The viability, T/C [20] was 27.8%, the viability, T/C [21] was 37.7% and the viability, T/C (second compound 3.16 µM, first compound 0.000316 µM) was 79.3%. It also gave a viability, T/C (second compound 3.16 µM, first compound 0.001 µM) of 71.3%, a viability, T/C (second compound 3.16 µM, first compound 0.00316 µM) of 77.5% and a viability, T/C (second compound 3.16 µM, first compound 0.01 µM) of 59.2%. The viability, T/C (second compound 3.16 µM, first compound 0.0316 µM) was 53.6%, the viability, T/C (second compound 3.16 µM, first compound 0.1 µM) was 37.6% and the viability, T/C (second compound 10 µM, first compound 0.000316 µM) was 63.9%. The viability, T/C (second compound 10 µM, first compound 0.001 µM) was 70.5%, the viability, T/C (second compound 10 µM, first compound 0.00316 µM) was 70.6% and the viability, T/C (second compound 10 µM, first compound 0.01 µM) was 50.8%. For the same compound, the viability, T/C (second compound 10 µM, first compound 0.0316 µM) was 49.6% and the viability, T/C (second compound 10 µM, first compound 0.1 µM) was 35.3%.
CC(C)NCC(C(=O)N1CCN(c2ncnc3c2C(C)CC3O)CC1)c1ccc(Cl)cc1 (stereo not drawn) was tested, and the viability, T/C (compound 0.316 µM) was 71.7% [middle of 13 runs], the viability, T/C (compound 10 µM) was 71.6% [middle of 13 runs] and the IC50 (compound alone, run of 06/01/2021) was > 10000 nM.
